Laboratory results as given in PubChem BioAssay (NCI).
Values joined by “and” are separate entries in the source; they are usually repeats but may differ in a detail not shown here. Equal values may be shown once.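 Values below derive from 48-hour exposures of cells grown in 96-well plates, with endpoints linearly interpolated between the two concentrations bracketing the appropriate inhibition level. GI50 is the concentration that inhibits growth by half. TGI: total growth inhibition.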

Assays:
Test in all cases: NCI anticancer screen, dose series, 48 h
EKVX NSCLC = tested on: EKVX NSCLC
HCT-15 colon = tested on: HCT-15 colon
HCT-116 colon = tested on: HCT-116 colon
HOP-92 NSCLC = tested on: HOP-92 NSCLC
RPMI-8226 leukemia = tested on: RPMI-8226 leukemia
SR leukemia = tested on: SR leukemia
NCI-H23 lung = tested on: NCI-H23 lung
SN12C renal = tested on: SN12C renal
SF-295 CNS = tested on: SF-295 CNS
OVCAR-8 ovarian = tested on: OVCAR-8 ovarian

Structure (SMILES) | TGI (EKVX NSCLC) | TGI (HCT-15 colon) | TGI (HCT-116 colon) | TGI (HOP-92 NSCLC) | TGI (RPMI-8226 leukemia) | TGI (SR leukemia) [µM] | TGI (NCI-H23 lung) | TGI (SN12C renal) | TGI (SF-295 CNS) | TGI (OVCAR-8 ovarian) | GI50 (EKVX NSCLC) | GI50 (HCT-15 colon) | GI50 (HCT-116 colon) | GI50 (HOP-92 NSCLC) | GI50 (RPMI-8226 leukemia) | GI50 (SR leukemia) [µM] | GI50 (NCI-H23 lung) | GI50 (SN12C renal) | GI50 (SF-295 CNS) | GI50 (OVCAR-8 ovarian)
C=CC(C1=CC(=O)C(OC)=CC1=O)c1ccccc1 (stereo not given) | 30.5 µM | 32 µM | 23.4 µM | 11.8 µM | > 67.6 µM | 26.5 | 32.5 µM | 28 µM | 27.6 µM | 58.7 µM | – | – | – | – | – | – | – | – | – | –
Cc1cccc2c1N(C(=O)/C=C\C(=O)O)C(c1c(C)[nH]c3ccccc13)C2 (stereo not given) | > 100 µM | – | 54.3 µM | 82.4 µM | > 100 µM | > 100 | > 100 µM | > 100 µM | > 100 µM | > 100 µM | – | – | – | – | – | – | – | – | – | –
COC1CCN(C(=O)c2cc(Cc3n[nH]c(=O)c4ccccc34)ccc2F)CC1 | > 100 µM | > 100 µM | > 100 µM | > 100 µM | > 100 µM | > 100 | > 100 µM | > 100 µM | > 100 µM | > 100 µM | > 100 µM | > 100 µM | > 100 µM | 41.5 µM | 60.9 µM | 21.7 | 51.7 µM | 67.5 µM | 24.2 µM | > 73.2 µM
COc1cc(OC)c(/C=C\c2ccnc3ccccc23)c(OC)c1 | 17.7 µM | 18.5 µM | 13.3 µM | 9.91 µM | 13 µM | 12.6 | 22.1 µM | 16.3 µM | 8.35 µM | – | – | – | – | – | – | – | – | – | – | –
CCOC(=O)CSC(=O)NCCCl | > 100 µM | > 100 µM | > 100 µM | > 100 µM | > 100 µM | > 100 | > 100 µM | > 100 µM | > 100 µM | > 100 µM | – | – | – | – | > 100 µM | > 100 | – | – | – | –
COC(=O)C(=O)C(C(=O)C(=O)Nc1nc2ccc(C)cc2s1)c1nc2ccc([N+](=O)[O-])cc2[nH]c1=O (stereo not given) | > 100 µM | > 100 µM | > 100 µM | > 100 µM | > 100 µM | > 100 | > 100 µM | > 100 µM | > 100 µM | > 100 µM | – | – | – | – | – | – | – | – | – | –
O=C(CN(/C=C/C(=O)C(F)(F)F)c1ccc(Cl)cc1)c1ccccc1 | 34.1 µM | 38.7 µM | 23.7 µM | 28.1 µM | 89.3 µM | 57 | 27.2 µM | 34.2 µM | 41.4 µM | > 100 µM | 15.1 µM | 15.1 µM | 11.6 µM | 10.4 µM | 12.9 µM | 14.8 | 8.75 µM | 16 µM | 12.1 µM | 44 µM
c1cc2[nH]ncc2cc1-c1nc2ccc3[nH]ncc3c2c2c1CCCC2 | 9.15 µM | 11.2 µM | 10.6 µM | 4.58 µM | 4.9 µM | – | 7.44 µM | 13.4 µM | 7.58 µM | 15.9 µM | 1.91 µM | 0.54 µM | 0.455 µM | 0.966 µM | 0.799 µM | 0.338 | 1.83 µM | 2.53 µM | 1.84 µM | 2.66 µM
O=C1Nc2c(C(F)(F)F)cccc2[C@@]1(c1ccc(O)cc1)c1ccc(OC(F)(F)F)cc1 | 0.0351 µM | – | – | 0.0802 µM | 50.8 µM | 29.5 | < 0.0135 µM | < 0.011 µM | 0.0469 µM | 0.0102 µM | 0.0134 µM | – | < 0.0172 µM | 0.0136 µM | 8.99 µM | 10.5 | < 0.01 µM | < 0.01 µM | 0.0193 µM | < 0.01 µM
Clc1ccc2c(c1)N(c1ncnc3ccc(-c4cnc5[nH]ccc5c4)cc13)CC2 | 34.4 µM | 12.5 µM | 14.7 µM | 31.5 µM | > 100 µM | > 100 | 52.4 µM | 20 µM | 19.7 µM | 29.5 µM | 0.789 µM | 1.06 µM | 1.36 µM | 2.61 µM | 0.766 µM | 0.595 | 3.2 µM | 1.95 µM | 0.88 µM | 3.25 µM
CNCc1cc(OC)ccc1-c1ccc(OC)c(OC)c1OC | > 100 µM | > 100 µM | > 100 µM | > 100 µM | > 100 µM | > 100 | > 100 µM | > 100 µM | > 100 µM | > 100 µM | – | – | – | – | – | – | – | – | – | –
C=CC(=O)NCc1cccc(Nc2ncc(Br)c(NCCCNC(=O)C3CCC3)n2)c1 | 6.07 µM and 14.9 µM | 12.5 µM and 13.2 µM | 12.5 µM and 14.3 µM | 5.21 µM and 16.4 µM | 8.19 µM and > 25 µM | 12.5 | 8.7 µM and 7.85 µM | 12.5 µM and > 25 µM | 8.36 µM and 16.8 µM | 12.5 µM and > 25 µM | 1.59 µM and 2.59 µM | 2.27 µM and 2.65 µM | 1.75 µM and 0.603 µM | 0.637 µM and 0.596 µM | 1.92 µM and 1.88 µM | 0.394 | 1.5 µM and 1.19 µM | 0.621 µM and 0.45 µM | 1.1 µM and 1.32 µM | 1.99 µM and 1.72 µM
COc1ccc(C(=O)COC(=O)[C@H](C[Se][Se]C[C@H](NC(=O)c2ccc(Br)cc2F)C(=O)OCC(=O)c2ccc(OC)cc2)NC(=O)c2ccc(Br)cc2F)cc1 | 2.35 µM | 2.99 µM | 2.78 µM | 5.87 µM | 5.69 µM | 4.82 | 1.81 µM | 2.49 µM | 0.61 µM | 1.86 µM | 0.591 µM | 1.03 µM | 0.949 µM | 2.04 µM | 0.502 µM | 0.478 | 0.412 µM | 1.04 µM | 0.211 µM | 0.513 µM
COC(=O)[C@]12CC[C@@H](C)[C@H](C)[C@@H]1C1=CC[C@@H]3[C@@]4(C)C(C=O)=C[C@@](C)(COC(C)=O)C4=CC[C@@]3(C)[C@]1(C)CC2 | 16.1 µM | 12.1 µM | 10.4 µM | 16.3 µM | 5.7 µM | 7.83 | 19.3 µM | 28.1 µM | 11.9 µM | 18.9 µM | 4.13 µM | 3.38 µM | 2.47 µM | 2.63 µM | 2 µM | 2.22 | 4.53 µM | 6.12 µM | 2.98 µM | 4.46 µM
Cc1ccc(NC(=O)C(=O)C(C#N)c2nc(-c3ccc(-c4ccccc4)cc3)cs2)c(C)c1 (stereo not given) | > 100 µM | > 100 µM | > 100 µM | > 1 µM | > 100 µM | > 100 | > 1 µM | > 100 µM | > 100 µM | > 100 µM | – | – | – | – | – | – | – | – | – | –
O=C(O)C[C@H]1CCCCC12CCOC2=O (stereo not given in full) | > 100 µM | – | > 100 µM | > 100 µM | > 100 µM | > 100 | > 100 µM | > 100 µM | > 100 µM | > 100 µM | – | – | – | – | – | – | – | – | – | –
